Results from patent US8617607B2, “Sustained release formulations of psychoactive drugs” (TYRX, Inc., priority 2008, dated 2013).

Conditions: 0.1% solution, PBS, 37° C.

## Cc1cc2c(s1)Nc1ccccc1N=C2N1CCN(C)CC1 [Olanzapine, 2-methyl-4-(4-methyl-1-piperazinyl)-10H-thieno[2,3-b][1,5]benzodiazepine]
  time for which olanzapine was stable: ≥ 14 days
